What was measured:
[1] = molecular target: Galectin-1 (Homo sapiens) (UniProt P09382); experiment: Inhibition of Galectin1
[2] = molecular target: Galectin-3 (Homo sapiens) (UniProt P17931); experiment: Inhibition of Galectin3
Sequence of Galectin-3 (Homo sapiens) (P17931 whole entry): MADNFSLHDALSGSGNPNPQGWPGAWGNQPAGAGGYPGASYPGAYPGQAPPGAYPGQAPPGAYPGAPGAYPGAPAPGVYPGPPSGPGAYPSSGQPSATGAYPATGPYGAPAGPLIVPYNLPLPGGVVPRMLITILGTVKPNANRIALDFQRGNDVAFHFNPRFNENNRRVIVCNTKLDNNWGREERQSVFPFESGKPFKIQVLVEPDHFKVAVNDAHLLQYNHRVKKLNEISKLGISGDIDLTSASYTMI

Sequence of Galectin-1 (Homo sapiens) (P09382 whole entry): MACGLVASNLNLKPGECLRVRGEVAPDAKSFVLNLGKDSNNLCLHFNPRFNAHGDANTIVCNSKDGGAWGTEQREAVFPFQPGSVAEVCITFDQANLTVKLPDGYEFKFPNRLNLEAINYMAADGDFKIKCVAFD

Row | Molecule | Activity [1] | Activity [2]
1 | CC(=O)OC[C@H]1O[C@@H](Sc2ccc3ccccc3c2)[C@H](OC(C)=O)[C@@H](OC(C)=O)[C@@H]1O[C@@H]1O[C@H](CO)[C@H](O)[C@H](O)[C@H]1O | 0.313 mM | 0.313 mM
2 | LACTOSE, ANHYDROUS | 0.8 mM | 0.8 mM
3 | CC(=O)OC[C@H]1O[C@@H](Sc2ccc3ccccc3c2)[C@H](OC(C)=O)[C@@H](OC(C)=O)[C@H]1O | 5 mM | 5 mM
4 | CC(=O)OC[C@H]1O[C@@H](Oc2ccccc2[N+](=O)[O-])[C@H](OC(C)=O)[C@@H](OC(C)=O)[C@H]1O | > 5 mM | > 5 mM
5 | O=S(=O)(c1ccc(Br)cc1)[C@@H]1O[C@H](CO)[C@@H](O[C@@H]2O[C@H](CO)[C@H](O)[C@H](O)[C@H]2O)[C@H](O)[C@H]1O | 0.313 mM | 0.313 mM
6 | CC(=O)OC[C@H]1O[C@@H](Oc2ccccc2[N+](=O)[O-])[C@H](OC(C)=O)[C@@H](OC(C)=O)[C@@H]1O[C@@H]1O[C@H](CO)[C@H](O)[C@H](O)[C@H]1O | 0.08 mM | 0.625 mM
7 | O=C[C@H](O)[C@@H](O)[C@@H](O)[C@H](O)CO | 50 mM | 50 mM
8 | COc1ccc(S[C@@H]2O[C@H](COC(C)=O)[C@H](O)[C@H](OC(C)=O)[C@H]2OC(C)=O)cc1 | > 5 mM | 2.5 mM
9 | O=S(=O)(c1ccc2ccccc2c1)[C@@H]1O[C@H](CO)[C@@H](O[C@@H]2O[C@H](CO)[C@H](O)[C@H](O)[C@H]2O)[C@H](O)[C@H]1O | 0.04 mM | 0.313 mM
10 | CC(=O)OC[C@H]1O[C@@H](Sc2ccc([N+](=O)[O-])cc2)[C@H](OC(C)=O)[C@@H](OC(C)=O)[C@@H]1O[C@@H]1O[C@H](CO)[C@H](O)[C@H](O)[C@H]1O | 0.313 mM | 0.313 mM

Second part, the molecule after the results:

Row | Activity [1] | Activity [2] | Molecule
11 | 10 mM | 10 mM | CC(=O)OC[C@H]1O[C@@H](Oc2ccc([N+](=O)[O-])cc2)[C@H](OC(C)=O)[C@@H](OC(C)=O)[C@H]1O
12 | > 5 mM | > 5 mM | COc1ccc(S(=O)(=O)[C@@H]2O[C@H](CO)[C@H](O)[C@H](O)[C@H]2O)cc1
13 | 0.313 mM | 0.313 mM | COc1ccc(S[C@@H]2O[C@H](COC(C)=O)[C@@H](O[C@@H]3O[C@H](CO)[C@H](O)[C@H](O)[C@H]3O)[C@H](OC(C)=O)[C@H]2OC(C)=O)cc1
14 | 0.313 mM | 0.313 mM | CC(=O)OC[C@H]1O[C@@H](Sc2ccc(Br)cc2)[C@H](OC(C)=O)[C@@H](OC(C)=O)[C@@H]1O[C@@H]1O[C@H](CO)[C@H](O)[C@H](O)[C@H]1O
15 | 0.313 mM | 0.625 mM | CC(=O)OC[C@H]1O[C@@H](Oc2ccc([N+](=O)[O-])cc2)[C@H](OC(C)=O)[C@@H](OC(C)=O)[C@@H]1O[C@@H]1O[C@H](CO)[C@H](O)[C@H](O)[C@H]1O
16 | 2.5 mM | > 5 mM | CC(=O)OC[C@H]1O[C@@H](Sc2ccc([N+](=O)[O-])cc2)[C@H](OC(C)=O)[C@@H](OC(C)=O)[C@H]1O

— ChEMBL document CHEMBL1139020, “Aryl O- and S-galactosides and lactosides as specific inhibitors of human galectins-1 and -3: role of electrostatic potential at O-3” (Bioorg Med Chem Lett, 2006)
